Where two headings read alike, the source gives them in different places.
Experiments:
high-risk MDS = system: high-risk MDS; design: method as in PMID 35728048; details: comparator (azacitidine without pevonedistat); subset with high-risk MDS, post-hoc analysis; cited from earlier work
[1] = Plasma pharmacokinetics of belinostat and belinostat glucuronide (LC/MS/MS, noncompartmental analysis)
Description: (§1) Belinostat was administered by a 30 min intravenous (IV) infusion on days 1 through 5 of each cycle; pevonedistat was administered by a 60 min IV infusion on days 1, 3 and 5 immediately after belinostat. The treatments were repeated on 21-day cycles until disease progression or unacceptable toxicity. […] The regimen was administered on an outpatient basis.
(§2) Blood samples for measurement of plasma concentrations were collected on day 1 of cycle 1 for both belinostat and pevonedistat. Belinostat, PK samples were collected pretreatment, 5 min prior to the end of the infusion, and at 0.25, 0.5, 1, 2, 4, 6, 8, and 24 h after the end of the infusion. Pevonedistat, PK samples were collected pretreatment and 0.5, 1, 2, 2.5, 5, and 24 h after the start of the infusion. Plasma was stored at − 80 °C until analysis. […] Concentrations of belinostat were determined over the range of 30–5000 ng/mL with dilutions of up to 1:100 v/v using a validated LC/MS/MS method at the Analytical Pharmacology Core Laboratory at the Sidney Kimmel Comprehensive Cancer Center at Johns Hopkins [33].
(§3) Pharmacokinetic parameters were calculated from individual concentration–time data using standard noncompartmental methods as implemented in Phoenix WinNonlin version 8.2 (Pharsight A Certara Company, Cary, North Carolina). Pharmacokinetic parameters were summarized using descriptive statistics. Differences between the pharmacokinetic parameters between dose levels or BSA-based dose were evaluated statistically via the nonparametric Kruskal–Wallis test. All statistical tests were performed using JMP Statistical Discovery software (version 7; SAS Institute, Cary, NC).

[2] = design: method as in PMID 31097586, PMID 33441097; details: e.g. value, compared with clinical Cmax; cited from earlier work
[3] = system: relapsed/refractory AML and myelodysplastic syndrome; design: method as in PMID 24369094, PMID 21538061; details: some patients; cited from earlier work
[4] = in vivo
Description: as §1, §2, §3

[5] = cycle 1 day 1, dose level 1, belinostat 800 mg/m^2 IV (pevonedistat 20 mg/m^2), n=2, actual values
[6] = cycle 1 day 1, dose level 3, belinostat 800 mg/m^2 IV (pevonedistat 37 mg/m^2), n=2, actual values

Compound: Nc1ncn([C@@H]2O[C@H](CO)[C@@H](O)[C@H]2O)c(=O)n1 [azacitidine]
- Survival (high-risk MDS): 20.6 mos

Compound: O=C(/C=C/c1cccc(S(=O)(=O)Nc2ccccc2)c1)NO [Belinostat]
- Belinostat clearance by BSA-based dose ([1]; 1000 mg/m^2 compared with 800 mg/m^2, p = 0.05, Kruskal–Wallis): significantly higher
- AUCINF [1, 5]: 75.2 µM·h
- Cl (systemic clearance) [1, 5]: 87.5 L/h
- T1/2 [1, 5]: 0.67 h
- Tmax ([1]; cycle 1 day 1, dose level 2, belinostat 800 mg/m^2 IV (pevonedistat 25 mg/m^2), median (range; n)): 0.5 (0.4–0.5; 3) h
- Tmax ([1]; cycle 1 day 1, dose level 3, belinostat 800 mg/m^2 IV (pevonedistat 37 mg/m^2), median (range; n)): 0.4 (0.4–0.5; 3) h
- AUCINF [1, 6]: 87.4 µM·h
- Cl (systemic clearance) [1, 6]: 82.4 L/h
- T1/2 [1, 6]: 1.46 h
- Pharmacokinetic parameters compared between dose levels ([1]; dose levels 1-5, Kruskal–Wallis): not different by dose level
- Tmax ([1]; human, plasma, iv): 30 min
- AUC(0-inf) ([1]; human, plasma, iv, 800 mg/m2, AUCINF, cycle 1 day 1, belinostat 800 mg/m^2 IV, all 800 mg/m^2 patients (dose levels 1-3), mean±SD, n=7): 67.5 ± 19.1 µM·h
- clearance ([1]; human, plasma, iv, 800 mg/m2, Cl (systemic clearance), cycle 1 day 1, belinostat 800 mg/m^2 IV, all 800 mg/m^2 patients (dose levels 1-3), mean±SD, n=7): 1290 mL/min
- half-life ([1]; human, plasma, iv, 800 mg/m2, T1/2, cycle 1 day 1, belinostat 800 mg/m^2 IV, all 800 mg/m^2 patients (dose levels 1-3), mean±SD, n=7): 67.8 ± 30 min
- AUC(0-inf) ([1]; human, plasma, iv, 1000 mg/m2, AUCINF, cycle 1 day 1, belinostat 1000 mg/m^2 IV, all 1000 mg/m^2 patients (dose levels 4-5), mean±SD, n=7): 51.6 ± 25.8 µM·h
- clearance ([1]; human, plasma, iv, 1000 mg/m2, Cl (systemic clearance), cycle 1 day 1, belinostat 1000 mg/m^2 IV, all 1000 mg/m^2 patients (dose levels 4-5), mean±SD, n=7): 2180 mL/min
- half-life ([1]; human, plasma, iv, 1000 mg/m2, T1/2, cycle 1 day 1, belinostat 1000 mg/m^2 IV, all 1000 mg/m^2 patients (dose levels 4-5), mean±SD, n=7): 53.4 ± 18 min
- Cmax ([1]; human, plasma, iv, 1000 mg/m2, preEOI Cmax (peak plasma concentration), cycle 1 day 1, belinostat 1000 mg/m^2 IV, all 1000 mg/m^2 patients (dose levels 4-5), mean±SD, n=7): 104 ± 37.8 µM
- AUC(0-inf) ([1]; human, plasma, iv, AUCINF, cycle 1 day 1, dose level 1, belinostat 800 mg/m^2 IV (pevonedistat 20 mg/m^2), n=2, actual values): 54.6 µM·h
- AUC(0-inf) ([1]; human, plasma, iv, AUCINF, cycle 1 day 1, dose level 2, belinostat 800 mg/m^2 IV (pevonedistat 25 mg/m^2), mean±SD, n=3): 64.7 ± 27.4 µM·h
- AUC(0-inf) ([1]; human, plasma, iv, AUCINF, cycle 1 day 1, dose level 3, belinostat 800 mg/m^2 IV (pevonedistat 37 mg/m^2), n=2, actual values): 61 µM·h
- AUC(0-inf) ([1]; human, plasma, iv, AUCINF, cycle 1 day 1, dose level 4, belinostat 1000 mg/m^2 IV (pevonedistat 37 mg/m^2), mean±SD, n=3): 60.3 ± 39.2 µM·h
- AUC(0-inf) ([1]; human, plasma, iv, AUCINF, cycle 1 day 1, dose level 5, belinostat 1000 mg/m^2 IV (pevonedistat 50 mg/m^2), mean±SD, n=4): 45.1 ± 13.4 µM·h
- clearance ([1]; human, plasma, iv, Cl (systemic clearance), cycle 1 day 1, dose level 1, belinostat 800 mg/m^2 IV (pevonedistat 20 mg/m^2), n=2, actual values): 1000 mL/min
- clearance ([1]; human, plasma, iv, Cl (systemic clearance), cycle 1 day 1, dose level 2, belinostat 800 mg/m^2 IV (pevonedistat 25 mg/m^2), mean±SD, n=3): 1380 mL/min
- clearance ([1]; human, plasma, iv, Cl (systemic clearance), cycle 1 day 1, dose level 3, belinostat 800 mg/m^2 IV (pevonedistat 37 mg/m^2), n=2, actual values): 1030 mL/min
- clearance ([1]; human, plasma, iv, Cl (systemic clearance), cycle 1 day 1, dose level 4, belinostat 1000 mg/m^2 IV (pevonedistat 37 mg/m^2), mean±SD, n=3): 2020 mL/min
- clearance ([1]; human, plasma, iv, Cl (systemic clearance), cycle 1 day 1, dose level 5, belinostat 1000 mg/m^2 IV (pevonedistat 50 mg/m^2), mean±SD, n=4): 2300 mL/min
- half-life ([1]; human, plasma, iv, T1/2, cycle 1 day 1, dose level 1, belinostat 800 mg/m^2 IV (pevonedistat 20 mg/m^2), n=2, actual values): 35.4 min
- half-life ([1]; human, plasma, iv, T1/2, cycle 1 day 1, dose level 2, belinostat 800 mg/m^2 IV (pevonedistat 25 mg/m^2), mean±SD, n=3): 81.6 ± 36.6 min
- half-life ([1]; human, plasma, iv, T1/2, cycle 1 day 1, dose level 3, belinostat 800 mg/m^2 IV (pevonedistat 37 mg/m^2), n=2, actual values): 67.2 min
- half-life ([1]; human, plasma, iv, T1/2, cycle 1 day 1, dose level 4, belinostat 1000 mg/m^2 IV (pevonedistat 37 mg/m^2), mean±SD, n=3): 61.2 ± 26.4 min
- half-life ([1]; human, plasma, iv, T1/2, cycle 1 day 1, dose level 5, belinostat 1000 mg/m^2 IV (pevonedistat 50 mg/m^2), mean±SD, n=4): 47.4 ± 7.2 min
- Cmax ([1]; human, plasma, iv, preEOI Cmax (peak plasma concentration), cycle 1 day 1, dose level 1, belinostat 800 mg/m^2 IV (pevonedistat 20 mg/m^2), n=2, actual values): 109 µM
- Cmax ([1]; human, plasma, iv, preEOI Cmax (peak plasma concentration), cycle 1 day 1, dose level 2, belinostat 800 mg/m^2 IV (pevonedistat 25 mg/m^2), mean±SD, n=3): 120 ± 50.3 µM
- Cmax ([1]; human, plasma, iv, preEOI Cmax (peak plasma concentration), cycle 1 day 1, dose level 4, belinostat 1000 mg/m^2 IV (pevonedistat 37 mg/m^2), mean±SD, n=4): 96.5 ± 46 µM
- Cmax ([1]; human, plasma, iv, preEOI Cmax (peak plasma concentration), cycle 1 day 1, dose level 5, belinostat 1000 mg/m^2 IV (pevonedistat 50 mg/m^2), mean±SD, n=3): 114 ± 29.4 µM
- Cmax ([1]; read-out: preEOI Cmax (peak plasma concentration), cycle 1 day 1, belinostat 800 mg/m^2 IV, all 800 mg/m^2 patients (dose levels 1-3), mean±SD, n=8): 123 ± 34.3 µM
- Cmax ([1]; read-out: preEOI Cmax (peak plasma concentration), cycle 1 day 1, dose level 1, belinostat 800 mg/m^2 IV (pevonedistat 20 mg/m^2), n=2, actual values): 144 µM
- Cmax ([1]; read-out: preEOI Cmax (peak plasma concentration), cycle 1 day 1, dose level 3, belinostat 800 mg/m^2 IV (pevonedistat 37 mg/m^2), mean±SD, n=3): 125 ± 35 µM
- Concentrations shown to exert activity in preclinical studies [2]: 100 to 200 nM
- Single-agent clinical activity [3]: stable disease over several months

Compound: O=C(/C=C/c1cccc(S(=O)(=O)Nc2ccccc2)c1)NO[C@@H]1O[C@H](C(=O)O)[C@@H](O)[C@H](O)[C@H]1O [Belinostat glucuronide]
- Pharmacokinetic parameters compared between dose levels [4]: not different by dose level

Source: article PMC11742280, “A phase I study of MLN4924 and belinostat in relapsed/refractory acute myeloid leukemia or myelodysplastic syndrome” (Cancer Chemotherapy and Pharmacology, 2025)
